In US20230132823A1, “BI-FUNCTIONAL COMPOUNDS AND METHODS FOR TARGETED UBIQUITINATION OF ANDROGEN RECEPTOR” (MONTELINO THERAPEUTICS, INC., priority 2020, published 2023):

Assays:
[1] = system: progesterone receptor (PR) a and b; test: Immunoblot of PR in 22Rv1 cells; assay type: cell-based, human; conditions: 22Rv1, 24 hours, up to 10 μM
Method: Cell Culture. Human CaP cell lines, LNCaP, 22Rv1, VCaP, PC3, and DU145 are obtained from the American Type Culture Collection (ATCC) and maintained in the standard culture media: RPMI-1640 supplemented with 10% fetal bovine serum (FBS). LNCaP, 22Rv1, and VCaP are androgen-responsive cell lines, while PC3 and DU145 are not. To establish SAT resistant CaP cell lines, LNCaP, 22Rv1, and VCaP are treated continuously with 10-50 μM abiraterone, apalutamide, darolutamide, or enzalutamide. After 3-6 months, stable cell lines are established and designated as LNCaP-Abi^R, LNCaP-Apa^R, LNCaP-Daro^R, LNCaP-Enz^R, VCaP-Abi^R, VCaP-Apa^R, VCaP-Daro^R, VCaP-Enz^R, 22Rv1-Abi^R, 22Rv1-Apa^R, 22Rv1-Daro^R and 22Rv1-Enz^R. Unless otherwise specified, the standard culture media for these SAT-resistant cell lines included 10 μM of their respective SAT. For the proteasome inhibitor study, the inhibitors MG132 and Epoxomicin are used. The E3 ligase inhibitors Heclin, Nutlin 3a, Thalidomide, and VH298 are used. […] Mycoplasma contamination is also assessed using a PCR based detection system.
Immunoblot Analysis. […] Cell lysates are then centrifuged and protein in the supernatant is quantified. […] Following the incubation with appropriate secondary antibody, immunoblots are analyzed using SuperSignal West Femto Maximum Sensitivity Substrate (ThermoFisher).

LNCaP = LNCaP cell proliferation; assay type: cell-based, human; conditions: androgen-responsive cell line; 1 μM
Method: (§1) The human prostate cancer cell line, 22Rv1 has been reported to express a high level of AR-V7. Thus, 22Rv1 was seeded at 50,000 cells/well on a 24-well plate in quadruplicates and treated with test compound in concentrations ranging up to 20 μM for four days. Standard culture media was RPMI-1640 supplemented with 10% fetal bovine serum. The test compound initially was dissolved in DMSO at 50 mM. This stock solution was then diluted as needed for the indicated concentrations. At the end of the four-day period, cells were harvested using 1% trypsin and counted using an automated cell counter.
(§2) Cell Culture. Human CaP cell lines, LNCaP, 22Rv1, VCaP, PC3, and DU145 are obtained from the American Type Culture Collection (ATCC) and maintained in the standard culture media: RPMI-1640 supplemented with 10% fetal bovine serum (FBS). LNCaP, 22Rv1, and VCaP are androgen-responsive cell lines, while PC3 and DU145 are not. To establish SAT resistant CaP cell lines, LNCaP, 22Rv1, and VCaP are treated continuously with 10-50 μM abiraterone, apalutamide, darolutamide, or enzalutamide. […] Mycoplasma contamination is also assessed using a PCR based detection system.

VCaP = VCaP cell proliferation; assay type: cell-based, human; conditions: androgen-responsive cell line; 1 μM
PC3 = PC3 cell proliferation; assay type: cell-based, human; conditions: AR-negative cell line; 1 μM
Method: as §1, §2

22Rv1 = test: LDH assay for non-specific cytotoxicity in 22Rv1; assay type: cell-based, human; conditions: 22Rv1, up to 20 μM, six days (0.01, 0.1, 1, 10 and 20 μM tested)
Method: Apoptosis Assay. An apoptosis assay is carried out using the Thermo Fisher ApoDETECT Annexin V-FITC kit following the protocol recommended by the vendor. Briefly, after treatment with 1 μM of Test Compound for 3 to 24 hours, cells are fixed with 80% ethanol and washed with PBS three times. Then, fixed cells are incubated with Annexin V-FITC in PBS solution for 30 minutes at room temperature. After washing three times with PBS, cells are treated with 300 nM DAPI in PBS for 5 minutes at room temperature. Finally, after washing three times with PBS, mounting solution is added and the cells are visualized using immunofluorescence microscopy. Next, a TUNEL assay is performed using Promega DeadEnd Fluorometric TUNEL system. After treatment with Test Compound and fixation as described above in the Annexin-V experiment, 100 μl of equilibration buffer is incubated for 10 min. Then, 50 μl of TdT reaction mix is added and incubated for 60 min at 37° C. in a humidified chamber. Finally, stop solution is added and samples are mounted on slides using mounting medium. To assess non-specific cytotoxicity, an LDH assay kit is used.

[2] = system: SAT-resistant CaP cell lines; test: Cell proliferation assay in twelve SAT-resistant CaP cell lines; assay type: cell-based, human; conditions: 1 μM, 6 days; all lines except 22Rv1-EnzR
Method: Cell Culture. Human CaP cell lines, LNCaP, 22Rv1, VCaP, PC3, and DU145 are obtained from the American Type Culture Collection (ATCC) and maintained in the standard culture media: RPMI-1640 supplemented with 10% fetal bovine serum (FBS). LNCaP, 22Rv1, and VCaP are androgen-responsive cell lines, while PC3 and DU145 are not. To establish SAT resistant CaP cell lines, LNCaP, 22Rv1, and VCaP are treated continuously with 10-50 μM abiraterone, apalutamide, darolutamide, or enzalutamide. After 3-6 months, stable cell lines are established and designated as LNCaP-Abi^R, LNCaP-Apa^R, LNCaP-Daro^R, LNCaP-Enz^R, VCaP-Abi^R, VCaP-Apa^R, VCaP-Daro^R, VCaP-Enz^R, 22Rv1-Abi^R, 22Rv1-Apa^R, 22Rv1-Daro^R and 22Rv1-Enz^R. Unless otherwise specified, the standard culture media for these SAT-resistant cell lines included 10 μM of their respective SAT. For the proteasome inhibitor study, the inhibitors MG132 and Epoxomicin are used. The E3 ligase inhibitors Heclin, Nutlin 3a, Thalidomide, and VH298 are used. Cell lines obtained from ATCC are confirmed by checking their morphology using optical microscopy, establishing baselines for cell proliferation, verifying species of origin using isoenzymology, and characterizing the cell's DNA fingerprint using short tandem repeat (STR) profiling. Mycoplasma contamination is also assessed using a PCR based detection system. […]

AR-FL and AR-V7 mRNA = test: mRNA levels of AR-FL and AR-V7 (quantitative PCR); assay type: cell-based, human
[3] = system: Enzalutamide-resistant CaP tumor xenografts; test: Enzalutamide-resistant CaP tumor xenograft, systemic (IP or oral) dosing; assay type: in vivo, mice; conditions: four weeks, with enzalutamide, control 2200 mm^3
Method: In Vivo Study. To explore the therapeutic potential of Test Compound, 22Rv1, 22Rv1-Enz^R, VCaP, and VCaP-Enz^R are injected into nu/nu immunodeficient mice. When the resulting tumors reached an average size of 3 mm in diameter, all animals are surgically castrated via bilateral orchiectomy and divided into four groups of five mice each. For anesthesia, 3% isoflurane gas inhalation is used. Tumor size was measured using calipers and tumor volume was calculated using the formula: tumor volume=length×width^2[…].
Mice are then treated daily with Test Compound with or without enzalutamide via the indicated route (intratumoral, intraperitoneal, or oral) for five to six weeks. At the end of the study, all animals are sacrificed and tumors are harvested and analyzed. Statistical significance is calculated using the Student's t-test for paired comparisons of experimental groups and, where appropriate, by Wilcoxon rank sum test, and by 2-way ANOVA. In vitro experiments are repeated a minimum of three times.
To test whether the Compound is active systemically, an identical study is carried out as above except for delivering the Compound intraperitoneally (IP) or orally for four weeks. Enzalutamide-resistant CaP tumor xenografts are established in twelve mice and three each are assigned to the following four groups: control IP (vehicle), control oral (vehicle), 8.3 mg/kg IP, and 8.3 mg/kg oral. […]

Structure (SMILES): Cc1ncsc1-c1ccc([C@H](C)NC(=O)[C@@H]2C[C@@H](O)CN2C(=O)[C@@H](NC(=O)CCCCNC(=O)COc2c(-c3csc(N4CCOCC4)n3)ccc(F)c2F)C(C)(C)C)cc1 [Example 16, (2S,4R)-1-((S)-2-(5-(2-(2,3-difluoro-6-(2-morpholinothiazol-4-yl)phenoxy)acetamido)pentanamido)-3,3-dimethylbutanoyl)-4-hydroxy-N-((S)-1-(4-(4-methylthiazol-5-yl)phenyl)ethyl)pyrrolidine-2-carboxamide]
- effect on expression level of progesterone receptor (PR) a and b [1]: no visible effect
- effect on proliferation of LNCaP (LNCaP): inhibits the proliferation
- effect on proliferation of VCaP (VCaP): inhibits the proliferation
- effect on PC3 cells (PC3): not affected
- non-specific cytotoxic effect, lactate dehydrogenase (LDH) assay (22Rv1): no non-specific cytotoxic effect
- cell counts of SAT-resistant CaP cell lines, % of control [2]: 6-80 % of control
- effect on mRNA levels of AR-FL and AR-V7 (AR-FL and AR-V7 mRNA): no major effect
- tumor size ([3]; 8.3 mg/kg IP): approximately 1000 mm^3
- tumor size ([3]; 8.3 mg/kg oral (PO)): approximately 700 mm^3
